Reference: patent US12661358B2, “Purine derivatives as drugs for the treatment of neonatal hypoxia-ischemia brain injury and related diseases” (COMMISSARIAT A L'ENERGIE ATOMIQUE ET AUX ENERGIES …, priority 2020, dated 2026)

Legend:
[1] = system: primary rat cell-based BBB (blood-brain barrier) model; assay: Permeability of 14C-sucrose on primary rat cell-based BBB model after LPS challenge; conditions: LPS 10 ng/mL; compound at 0.1 μM and 1 μM; figure axis in 10^−6 cm·s^−1
Procedure: FIG. 2A: The permeability of radiolabelled sucrose, a permeability marker, was studied on a primary rat cell-based BBB (blood-brain barrier) model after lipopolysaccharide (LPS) challenge.
First graph (left): y-axis: permeability of ^14C-sucrose through the BBB (10^−6 cm·s^−1); x-axis (from left to right): BBB control (negative control); BBB+LPS (10 ng/mL) (positive control); BBB+Compound 13 (0.1 μM); BBB+LPS+Compound 13 (0.1 μM); BBB+Compound 13 (1 μM); BBB+LPS+Compound 13 (1 μM).
Second graph (right): y-axis: permeability of ^14C-sucrose through the BBB (10^−6 cm·s^−1); x-axis (from left to right): BBB control (negative control); BBB+LPS (10 ng/mL) (positive control); BBB+Aftin-5 (0.1 μM); BBB+LPS+Aftin-5 (0.1 μM); BBB+Aftin-5 (1 μM); BBB+LPS+Aftin-5 (1 μM).
The permeability of radiolabelled sucrose (^14C-sucrose), a permeability marker, was studied on a primary rat cell-based BBB (blood-brain barrier) model. Permeability was measured in 10^−6 cm·s^−1. ^14C-sucrose is a small molecular weight marker of 342 Da that tends to reflect paracellular disruption.
To induce increased BBB permeability, lipopolysaccharide (LPS) was injected. LPS induces increased BBB permeability by stimulating formation and release of cytokines and other molecules.
Two different Aftin compounds were tested in this example: […]. […]

[2] = as demonstrated in WO2018/189122; cited from earlier work
[3] = system: HI (Hypoxia-Ischemia) injury; assay: Rice-Vannucci neonatal HI model, infarct measurement; format: in vivo, Wistar rats; conditions: P7 rats, 30 mg/kg IP immediately after hypoxia, 24 h and 48 h; read 72 h after HI (P10); compared to HI+PL; males and females
Excerpt: Subjects were Wistar rats born from time-mated dams obtain from Charles River Laboratory (Wilmington, […], USA).
Post-natal day 7 (P7) (CNS maturation corresponding to 32-34 weeks of gestation in human) rats were assigned to 3 groups: sham, HI+PL or HI+Compound 13.
In the sham group no hypoxia-ischemia was induced in the rats. This group served as a control group.
In the HI+PL group, where PL stands for placebo, hypoxia-ischemia was induced in the rats. The rats were then further administered a saline vehicle, which served as the placebo.
In the HI+Compound 13 group, hypoxia-ischemia was induced in the rats. The rats were then further administered a dose of Compound 13, which is a compound of formula (I) according to the invention.
The Rice-Vanucci method was used to induce the HI injury (Rice J E et al., 1981) in groups HI+PL and HI+Compound 13.
In summary, each animal from all three groups was anesthetized using 3-4% isoflurane and total absence of leg withdrawal reflexes was verified prior to proceeding to surgery. […]
The infarct was calculated as a percentage of the ratio of the damaged volume to the volume of the total contralateral hemisphere with correction for hemispheric edema, according to the following formula: infarct (%)=[1−(volume of total ipsilateral hemisphere−volume of infarct)/volume of total contralateral hemisphere)]×100%.

Structure (SMILES)	permeability of 14C-sucrose through the BBB under inflammatory stress [1]	ability to cross the BBB [2]	infarct area / infarct volume of the hemisphere ipsilateral to HI injury [3]
CC[C@H](CO)Nc1nc(N(C)c2ccccc2)c2ncn(C(C)C)c2n1 [Aftin-5, (2R)-2-[[9-isopropyl-6-(N-methylanilino)purin-2-yl]amino]butan-1-ol]	statistically restored the permeability properties of the BBB	able to cross the BBB	–
CC[C@H](CO)Nc1nc(N(CC)Cc2ccccc2)c2ncn(C(C)C)c2n1 [Compound 13, (2R)-2-[[6-[benzyl(ethyl)amino]-9-isopropyl-purin-2-yl]amino]butan-1-ol]	statistically restored the permeability properties of the BBB	–	statistically reduced
